Reference: patent US20230117034A1, “PYRAZOLOTRIAZINES” (Bayer Aktiengesellschaft, priority 2019, published 2023)
Like-named read-outs stand apart in the source and are kept apart here.

System: Human tumour cells (cell line panel)
Assay: Proliferation assay: cell line panel (crystal violet, 4 days)
Type: cell-based
Conditions: read-out: Result Category, IC50 (mean)
Excerpt: Human tumour cells were originally obtained from the American Type Culture Collection (ATCC), from Cell Line Services GmbH (CLS), from the Deutsche Sammlung von Mikroorganismen und Zellkulturen (DSMZ, German Collection of Microorganisms and Cell Cultures), from the Japanese Cancer Research Resources Bank (JCRB), from Public Health England, from the European Collection of Authenticated Cell Cultures (ECACC), from Asterand Biosciences, or from the National Cancer Institute (NCI). Cultivated tumour cells were plated at the density as indicated in Table 6 in 96-well multititer plates in 200 microL of their respective growth medium supplemented 10% fetal calf serum. After 24 hours, the cells of one plate (zero-point plate) were stained with crystal violet (see below), while the medium of the other plates was supplemented with the test substances in various concentrations (0 micromol/L, as well as in the range of 0.003-3 micromol/L; the final concentration of the solvent dimethyl sulfoxide was adjusted to 0.1%) using a Tecan HP D300 Digital Dispenser. The cells were incubated for 4 days in the presence of test substances. Cell proliferation was determined by staining the cells with crystal violet: the cells were fixed by adding 20 microL/measuring point of an 11% glutaric aldehyde solution for 15 minutes at room temperature. After three washing cycles of the fixed cells with water, the plates were dried at room temperature. The cells were stained by adding 100 microL/measuring point of a 0.1% crystal violet solution (pH 3.0). After three washing cycles of the stained cells with water, the plates were dried at room temperature. The dye was dissolved by adding 100 microL/measuring point of a 10% acetic acid solution. The extinction was determined by photometry at a wavelength of 595 nm. The change of cell number, in percent, was calculated by normalization of the measured values to the extinction values of the zero-point plate (=0%) and the extinction of the untreated (0 μM) cells (=100%). The […] values (inhibitory concentration at 50% of maximal effect) were determined by means of a 4 parameter fit.

Compound `Brc1cnn2c(NCc3nc4ccccc4[nH]3)nc(N3CCOCC3)nc12` [Example 4, N-[(1H-benzimidazol-2-yl)methyl]-8-bromo-2-(morpholin-4-yl)pyrazolo[1,5-a][1,3,5]triazin-4-amine] has an IC50 (A673, sarcoma, 5000 cells/well) of no more than 30 nM, an IC50 (AU565, breast cancer, HER2 positive, 4000 cells/well) of no more than 30 nM and an IC50 (BT-474, BT474, breast cancer, HER2 positive, 4000 cells/well) of no more than 30 nM. It also gave an IC50 (BT-549, BT549, breast cancer, 4000 cells/well) of no more than 30 nM, an IC50 (CAL-120, breast cancer, triple-negative, 4000 cells/well) of no more than 30 nM and an IC50 (COV318, ovarian cancer, 4000 cells/well) of no less than 100 nM. It also gave an IC50 (COV362, ovarian cancer, 4000 cells/well) of no less than 100 nM, an IC50 (Calu-3, lung cancer, non-small cell, 4000 cells/well) of 30 to 100 nM and an IC50 (DLD-1, DLD1, colorectal cancer, 4000 cells/well) of 30 to 100 nM. For the same compound, the IC50 (DMS-79, DMS79, lung cancer, small cell, 5000 cells/well) was 30 to 100 nM, the IC50 (DU-145, DU145, prostate cancer, 3000 cells/well) was no less than 100 nM and the IC50 (EFM-192A, EFM192A, breast cancer, HER2 positive, 4000 cells/well) was 30 to 100 nM. For the same compound, the IC50 (HCC70, breast cancer, triple-negative, 5000 cells/well) was 30 to 100 nM, the IC50 (HCC202, breast cancer, HER2 positive, 5000 cells/well) was no more than 30 nM and the IC50 (HCC366, lung cancer, non-small cell, 4000 cells/well) was 30 to 100 nM. The IC50 (HCC1143, breast cancer, triple-negative, 4000 cells/well) was no more than 30 nM, the IC50 (HCC1419, breast cancer, HER2 positive, 4000 cells/well) was no less than 100 nM and the IC50 (HCC1599, breast cancer, triple-negative, 5000 cells/well) was no less than 100 nM. For the same compound, the IC50 (HCC1806, breast cancer, triple-negative, 4000 cells/well) was no less than 100 nM, the IC50 (HCC1937, breast cancer, triple-negative, 5000 cells/well) was no less than 100 nM and the IC50 (HCC1954, breast cancer, HER2 positive, 4000 cells/well) was no more than 30 nM. For the same compound, the IC50 (HCC2157, breast cancer, triple-negative, 5000 cells/well) was no more than 30 nM, the IC50 (HCT-116, HCT116, colorectal cancer, 3000 cells/well) was no less than 100 nM and the IC50 (HT-29, HT29, colorectal cancer, 2000 cells/well) was no more than 30 nM. The IC50 (HT-144, melanoma, 4000 cells/well) was no less than 100 nM, the IC50 (HUH-6clone5, liver cancer, 4000 cells/well) was no less than 100 nM and the IC50 (HUH-7, liver cancer, 4000 cells/well) was no more than 30 nM. The IC50 (HeLa, cervical cancer, 3000 cells/well) was 30 to 100 nM, the IC50 (JHH7, JHH-7, liver cancer, 4000 cells/well) was no more than 30 nM and the IC50 (JHH-4, liver cancer, 4000 cells/well) was 30 to 100 nM. The IC50 (JIMT-1, JIMT1, breast cancer, HER2 positive, 4000 cells/well) was no more than 30 nM, the IC50 (KYSE−410, estophageal cancer, 4000 cells/well) was 30 to 100 nM and the IC50 (LNCap, prostate cancer, 5000 cells/well) was 30 to 100 nM. It also gave an IC50 (Lovo, colorectal cancer, 4000 cells/well) of 30 to 100 nM, an IC50 (MCF7, breast cancer, 4000 cells/well) of no less than 100 nM and an IC50 (MDA-MB-231, breast cancer, triple-negative, 4000 cells/well) of no more than 30 nM. The IC50 (MDA-MB-361, breast cancer, HER2 positive, 5000 cells/well) was 30 to 100 nM, the IC50 (MDA-MB-436, breast cancer, triple-negative, 4000 cells/well) was no more than 30 nM and the IC50 (MDA-MB-468, breast cancer, triple-negative, 4000 cells/well) was no more than 30 nM. For the same compound, the IC50 (MKN-1, MKN1, gastric cancer, 4000 cells/well) was 30 to 100 nM, the IC50 (NCI-H23, lung cancer, non-small cell, 3000 cells/well) was 30 to 100 nM and the IC50 (NCI-H69, lung cancer, small cell, 4000 cells/well) was 30 to 100 nM. It also gave an IC50 (NCI-H82, lung cancer, small cell, 4000 cells/well) of 30 to 100 nM, an IC50 (NCI-H345, lung cancer, small cell, 5000 cells/well) of 30 to 100 nM and an IC50 (NCI-H446, lung cancer, small cell, 4000 cells/well) of 30 to 100 nM. For the same compound, the IC50 (NCI-H460, lung cancer, non-small cell, 3000 cells/well) was no less than 100 nM, the IC50 (NCI-H526, lung cancer, small cell, 4000 cells/well) was 30 to 100 nM and the IC50 (NCI-H1155, lung cancer, non-small cell, 4000 cells/well) was 30 to 100 nM. The IC50 (NCI-H1299, lung cancer, non-small cell, 4000 cells/well) was 30 to 100 nM, the IC50 (NCI-H1623, lung cancer, non-small cell, 5000 cells/well) was 30 to 100 nM and the IC50 (NCI-H1734, lung cancer, non-small cell, 5000 cells/well) was no more than 30 nM. For the same compound, the IC50 (NCI-H1793, lung cancer, non-small cell, 5000 cells/well) was 30 to 100 nM, the IC50 (NCI-H1836, lung cancer, small cell, 5000 cells/well) was 30 to 100 nM and the IC50 (NCI-H1838, lung cancer, non-small cell, 4000 cells/well) was no more than 30 nM. It also gave an IC50 (NCI-H1975, lung cancer, non-small cell, 3000 cells/well) of 30 to 100 nM, an IC50 (NCI-H2009, lung cancer, non-small cell, 5000 cells/well) of 30 to 100 nM and an IC50 (NCI-H2029, lung cancer, small cell, 5000 cells/well) of no more than 30 nM. The IC50 (NCI-H2030, lung cancer, non-small cell, 4000 cells/well) was no more than 30 nM, the IC50 (NCI-H2405, lung cancer, non-small cell, 4000 cells/well) was no less than 100 nM and the IC50 (NCI-N87, gastric cancer, 4000 cells/well) was no more than 30 nM. For the same compound, the IC50 (OVCAR-3, OVCAR3, ovarian cancer, 5000 cells/well) was 30 to 100 nM, the IC50 (OVCAR-8, OVCAR8, ovarian cancer, 4000 cells/well) was 30 to 100 nM and the IC50 (PC-3, prostate cancer, 3000 cells/well) was 30 to 100 nM. The IC50 (PLC/PRF/5, liver cancer, 4000 cells/well) was no more than 30 nM, the IC50 (SK-BR-3, breast cancer, HER2 positive, 5000 cells/well) was no more than 30 nM and the IC50 (SK-HEP1, SK-HEP-1, liver cancer, 4000 cells/well) was no more than 30 nM. For the same compound, the IC50 (SK-OV-3, ovarian cancer, 4000 cells/well) was no less than 100 nM, the IC50 (SNU-449, SNU449, liver cancer, 4000 cells/well) was 30 to 100 nM and the IC50 (SUM149, breast cancer, triple-negative, 4000 cells/well) was no more than 30 nM. For the same compound, the IC50 (SW480, colorectal cancer, 3000 cells/well) was no more than 30 nM, the IC50 (SW-620, SW620, colorectal cancer, 3000 cells/well) was no more than 30 nM and the IC50 (U2OS, U2-OS, sarcoma, 5000 cells/well) was no more than 30 nM. For the same compound, the IC50 (U-251, U251MG, glioblastoma, 3000 cells/well) was 30 to 100 nM.
